Results from ChEMBL document CHEMBL1141818, “Annonaceous acetogenins: recent progress” (J Nat Prod, 1999).
Values after ≈ are worked out from the molar mass of the structure shown.

How the values were obtained:
PC-3 = test: Cytotoxicity against human PC-3 cells; type: functional; conditions: for EC50: Homo sapiens, PC-3, read-out: ED50 (the source's name)
MIA PaCa-2 = test: Cytotoxicity against human MIA PaCa2 cells; type: functional; conditions: for EC50: Homo sapiens, MIA PaCa-2, read-out: ED50 (the source's name)
[1] = Toxicity in brine shrimp; type: organism-based; conditions: artemia, in vivo
A549 = test: Cytotoxicity against human A549 cells; type: functional; conditions: for EC50: Homo sapiens, A549, read-out: ED50 (the source's name)
MCF7 = test: Cytotoxicity against human MCF7 cells; type: functional; conditions: for EC50: Homo sapiens, MCF7, read-out: ED50 (the source's name)
HT-29 = test: Cytotoxicity against human HT-29 cells; type: functional; conditions: for EC50: Homo sapiens, HT-29, read-out: ED50 (the source's name)
A498 = test: Cytotoxicity against human A-498 cells; type: functional; conditions: for EC50: Homo sapiens, A498, read-out: ED50 (the source's name)

| SMILES | ED50 (PC-3) | ED50 (MIA PaCa-2) | LC50 [1] [µg/mL] | ED50 (A549) [µg/mL] | ED50 (MCF7) | ED50 (HT-29) [×10⁻² ug/ml] | EC50 (A498) [µg/mL] | EC50 (HT-29) [µg/mL] | ED50 (A498) [µg/mL] | EC50 (PC-3) [µg/mL] | EC50 (A549) [µg/mL] | EC50 (MIA PaCa-2) [µg/mL] | EC50 (MCF7) [µg/mL] |
| --- | --- | --- | --- | --- | --- | --- | --- | --- | --- | --- | --- | --- | --- |
| CCCCCCCCCC[C@H](O)[C@@H](O)CCCC[C@H]1CC[C@H]([C@H]2CC[C@H]([C@H](O)CCCCC[C@@H](O)CC3=C[C@H](C)OC3=O)O2)O1 (stereo in doubt; 21) [GLACIN B] | 5.6 ×10⁻² ug/ml | 1.5 ×10⁻² ug/ml | 0.27 (≈ 0.423 µM) | 1.3 (≈ 2.03 µM) | 5.2 ×10⁻² ug/ml | 8.7 | 2.6 (≈ 4.07 µM) |  |  |  |  |  |  |
| CCCCC[C@H](O)[C@H](O)CCC[C@H](O)[C@H]1CC[C@H]([C@H]2CC[C@H]([C@H](O)CCCCCCCCCCCCC3=C[C@H](C)OC3=O)O2)O1 (stereo in doubt; 91) [PURPUREDIOLIN] | 1.1 µg/mL (≈ 1.72 µM) | 3 µg/mL (≈ 4.7 µM) | 0.43 (≈ 0.673 µM) | 1.6 (≈ 2.5 µM) | 2.5 ×10⁻⁴ ug/ml |  |  | 0.0046 (≈ 0.0072 µM) | 1.5 (≈ 2.35 µM) |  |  |  |  |
| CCCCCCCCCCCC[C@H](O)[C@H]1CC[C@H]([C@H](O)CCCC[C@H](O)CCCCCCC[C@@H](O)CC2=C[C@H](C)OC2=O)O1 [ANNOGLACIN A] |  | 5.1 ×10⁻⁷ ug/ml | 0.49 (≈ 0.784 µM) |  | 9.6 ×10⁻⁴ ug/ml |  | 0.9 (≈ 1.44 µM) | 0.0053 (≈ 0.00848 µM) |  | 0.002 (≈ 0.0032 µM) | 0.0053 (≈ 0.00848 µM) |  |  |
| CCCCCCCCCCCC[C@@H](O)[C@H]1CC[C@H]([C@H](O)CCCC[C@H](O)CCCCCCC[C@@H](O)CC2=C[C@H](C)OC2=O)O1 [ANNOGLACIN B] | 8.4 ×10⁻⁴ ug/ml | 1.2 ×10⁻⁶ ug/ml | 0.17 (≈ 0.272 µM) |  | 6.2 ×10⁻⁴ ug/ml |  | 0.4 (≈ 0.64 µM) | 0.0053 (≈ 0.00848 µM) |  |  | 0.0028 (≈ 0.00448 µM) |  |  |
| CCCCCCCCCCCC/C=C\CC[C@@H](O)[C@H](O)CCCCCCC(=O)CCCCCCCC1=C[C@H](C)OC1=O [ANNOJAHNIN] |  |  | 11 (≈ 18.6 µM) |  |  |  | 4.9 (≈ 8.29 µM) | 0.059 (≈ 0.0998 µM) |  | 0.016 (≈ 0.0271 µM) | 1.5 (≈ 2.54 µM) | 0.023 (≈ 0.0389 µM) | 2.8 (≈ 4.74 µM) |
| CCCCCCCCCCCC[C@@H](O)[C@H]1CC[C@H]([C@H](O)CCC[C@@H](O)[C@@H](O)CCCCC[C@@H](O)CC2=C[C@H](C)OC2=O)O1 [ANNOMURICIN E] |  |  | 18.4 (≈ 30 µM) |  |  |  | 1.4 (≈ 2.28 µM) | 0.67 (≈ 1.09 µM) |  | 0.15 (≈ 0.245 µM) | 0.11 (≈ 0.179 µM) | 0.24 (≈ 0.392 µM) | 0.15 (≈ 0.245 µM) |
| CCCCCCCCCCCCCC/C=C\[C@@H](O)C[C@H](O)[C@@H]1CC[C@@H](CCCCC[C@@H](O)CC2=C[C@H](C)OC2=O)O1 [GONIOTRIONIN] |  |  |  |  | 5.3 ×10⁻⁶ ug/ml |  | 0.002 (≈ 0.00345 µM) | 0.34 (≈ 0.587 µM) |  | 0.36 (≈ 0.622 µM) | 0.0077 (≈ 0.0133 µM) | 0.0054 (≈ 0.00933 µM) |  |
| CCCCCCCCCCCC[C@H](O)[C@H]1CC[C@H]([C@H](O)CCCCCC(=O)CCCC[C@@H](O)CC2=C[C@H](C)OC2=O)O1 [MOSIN B] |  | 1.2 ×10⁻⁴ ug/ml |  |  |  |  | > 1 | > 1 |  | > 1 | 0.94 (≈ 1.58 µM) |  | > 1 |
| CCCCCCCCCCCC[C@H](O)[C@@H]1CC[C@H]([C@H](O)CCCCCC(=O)CCCC[C@@H](O)CC2=C[C@H](C)OC2=O)O1 [MOSIN C] |  | 1.2 ×10⁻⁴ ug/ml |  |  |  |  | > 1 | > 1 |  | > 1 | 0.6 (≈ 1.01 µM) |  | > 1 |
| CCCCCCCCCCCC[C@@H](O)[C@H]1CC[C@H]([C@H]2CCC[C@@H]([C@@H](O)CCCCCCC[C@@H](O)CC3=C[C@H](C)OC3=O)O2)O1 [MUCONIN] |  | 5.4 ×10⁻⁴ ug/ml |  |  | 2.4 ×10⁻⁴ ug/ml |  | 0.18 (≈ 0.289 µM) | 0.39 (≈ 0.626 µM) |  | 0.58 (≈ 0.931 µM) | 0.0045 (≈ 0.00722 µM) |  |  |
| CCCCCCCCCCCCCCCCC[C@@H](O)[C@H]1C[C@H](O)[C@H]([C@H]2CC[C@H]([C@H](O)CCCCCC3=C[C@H](C)OC3=O)O2)O1 [MUCOXIN] |  |  |  |  |  |  | 0.84 (≈ 1.35 µM) | 0.61 (≈ 0.979 µM) |  | 0.31 (≈ 0.498 µM) | 0.036 (≈ 0.0578 µM) | 0.33 (≈ 0.53 µM) | 0.0037 (≈ 0.00594 µM) |
| CCCCCCCCCCCC[C@@H](O)[C@H]1CC[C@@H]([C@@H]2CC[C@@H](CCCCCCC[C@@H](O)CC3=C[C@H](C)OC3=O)O2)O1 [ROLLIDECIN C] |  |  |  |  |  |  | 1.4 (≈ 2.42 µM) | 0.063 (≈ 0.109 µM) |  | 0.29 (≈ 0.501 µM) | 1.3 (≈ 2.25 µM) | 0.11 (≈ 0.19 µM) | 1.1 (≈ 1.9 µM) |
| CCCCCCCCCCCC[C@@H](O)[C@H]1CC[C@@H]([C@@H]2CC[C@@H](CCCCCCCCC[C@@H](O)CC3=C[C@H](C)OC3=O)O2)O1 [ROLLIDECIN D] |  |  |  |  |  |  | 4 (≈ 6.59 µM) | 5.4 (≈ 8.9 µM) |  | 1.9 (≈ 3.13 µM) | 5.9 (≈ 9.72 µM) | 1 (≈ 1.65 µM) | 5 (≈ 8.24 µM) |
| CCCCCCCCCCCC[C@H](O)[C@H]1CC[C@H]([C@H]2CC[C@H]([C@H](O)CCCCCCCC[C@@H](O)CC3=C[C@H](C)OC3=O)O2)O1 [SQUAMOTACIN] | 1 ×10⁻⁸ ug/ml |  |  |  |  |  |  |  |  |  |  |  |  |
